Assay results: patent publication US7981912B2, “Indole acetic acids exhibiting CRTH2 receptor antagonism and uses thereof” (Wyeth LLC, priority 2004, dated 2011)

Key:
human CRTH2 [1] = biological target: T1, human CRTH2 (Homo sapiens, UniProt Q9Y5Y4); assay: CRTH2 fluorescent imaging assay (intracellular calcium, antagonist mode); assay type: cell-based; set-up: expressed in transfected cells; host or cells: HT1080-hCRTH2; settings: HT1080-hCRTH2 cells; block of calcium increase caused by 500 nM PGD2
T1 sequence (Q9Y5Y4 1-395): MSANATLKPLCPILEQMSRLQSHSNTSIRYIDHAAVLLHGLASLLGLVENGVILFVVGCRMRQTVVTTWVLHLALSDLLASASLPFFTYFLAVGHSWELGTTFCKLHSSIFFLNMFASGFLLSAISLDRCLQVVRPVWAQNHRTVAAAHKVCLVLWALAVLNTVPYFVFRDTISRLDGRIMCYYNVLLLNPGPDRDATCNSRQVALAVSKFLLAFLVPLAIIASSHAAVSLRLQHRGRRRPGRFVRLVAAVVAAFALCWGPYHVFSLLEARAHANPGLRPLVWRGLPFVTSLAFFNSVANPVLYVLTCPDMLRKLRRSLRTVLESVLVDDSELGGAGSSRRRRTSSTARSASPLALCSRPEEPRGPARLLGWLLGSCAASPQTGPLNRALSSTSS
Method: The ability of the disclosed compounds to act as agonists for the hCRTH2 receptor was determined by their ability to cause increases in intracellular calcium via binding to the CRTH2 receptor.
Assays were performed on HEK 293EBNA-hCRTH2 cells that had been grown in DMEM media containing 10% FBS, […] puromycin and 1% penicillin/streptomycin/glutamine (PSG) at 37° C. in 5% CO2 or on HT1080-hCRTH2 cells (a HT1080 cell line stably expressing human CRTH2) that had been grown in alphaMEM media containing 10% FBS, 500 μg/ml hygromycin, 200 nM methotrexate and 1% PSG at 37° C. in 5% CO2.
For the assay, HEK 293EBNA-hCRTH2 cells or HT1080-hCRTH2 cells were grown to approximately 90% confluency and then dislodged from the plate with Trypsin-EDTA, resuspended in DMEM media, seeded in 384 well plates at 2×10^4 cells per well and incubated overnight at 37° C. The cells were loaded with a calcium sensing dye by removing the growth media and replacing it with 30 μL of dye loading Ringer's buffer (136 mM […], 5.4 mM D-Glucose, 20 mM Hepes pH 7.4, 2.1 mM MgCl2, 0.8 mM CaCl2, 0.2% BSA with 1× Calcium3Dye (Molecular Devices) and 2.5 mM Probenecid (Sigma)) per well. The cells were incubated at 37° C. for 1 hour to allow the dye to enter the cells. Compounds were serially diluted in DMSO and then diluted to 4× their final concentration with Ringer's buffer. The compounds were added to a 384 well plate in quadruplicate. In addition to test compounds, several wells contained Ringer's buffer with DMSO. These wells serve as control wells. 10 μL was transferred from compound/control plate to the plate containing cells loaded with dye by a fluorescent imaging plate reader (Molecular Devices). The fluorescence was measured every 4 seconds for 4 minutes. These measurements indicated the level of intracellular calcium. Increases in fluorescence relative to wells containing buffer only indicated an agonist effect of the compound. Measurement at various compound concentrations allowed one to determine the EC50 for these compounds. Following the 4 minute incubation with compound, 20 μL of Ringer's buffer with either 10 nM or 500 nM PGD2 (approximate EC75 for PGD2 in HEK 293EBNA-hCRTH2 cells and HT1080-hCRTH2 cells, respectively) was added to the wells. Inhibition by the compounds of the calcium response due to antagonism of PGD2 action on CRTH2 is reflected by a decrease in fluorescent signal relative to wells containing no compound. The fluorescence was measured every 2 seconds for 10 seconds before addition of PGD2 and every 2 seconds for 110 seconds following addition. Measurement at various compound concentrations allowed one to determine the IC50 for these compounds. EC50 and IC50 values were determined from the experimental results by nonlinear regression using the Prism 4.0 software.

human CRTH2 [2] = biological target: T1, human CRTH2; assay: CRTH-2 binding assay (scintillation proximity assay, inhibition of 3H-PGD2 binding); set-up: expressed in transfected cells; host or cells: HEK 293EBNA-hCRTH2 (membrane preparation); settings: inhibition of 3H-PGD2 (3.6 nM) binding to HEK 293EBNA-hCRTH2 membranes; Ki calculated from IC50
Procedure, shortened: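 Membranes from HEK 293EBNA cells stably expressing human CRTH2 (~20 μg protein/100 μL) with SPA beads and 3.6 nM 3H-PGD2 in 10 mM Hepes pH 7.4, 1 mM EDTA, 10 mM MnCl2, glycerol, 2 h at room temperature, seven compound concentrations in triplicate. Nonspecific binding defined with indomethacin; IC50 converted to Ki using Kd and radioligand concentration.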

Structure (SMILES)	IC50 (human CRTH2 [1])	Ki (human CRTH2 [2])
Cc1c(-c2nn(Cc3ccccc3)c(=O)c3ccccc23)c2cc(Cl)ccc2n1CC(=O)O [Example 16, [3-(3-Benzyl-4-oxo-3,4-dihydro-phthalazin-1-yl)-5-chloro-2-methyl-indol-1-yl]-acetic acid]	19 nM	< 100 nM
Cc1c(-c2nn(Cc3ccc(F)cc3)c(=O)c3ccccc23)c2cc(Cl)ccc2n1CC(=O)O [Example 24, {5-Chloro-3-[3-(4-fluoro-benzyl)-4-oxo-3,4-dihydro-phthalazin-1-yl]-2-methyl-indol-1-yl}-acetic acid]	60 nM	< 100 nM
Cc1c(C2=NN(Cc3cccc(C(F)(F)F)c3)S(=O)(=O)c3ccccc32)c2cc(F)ccc2n1CC(=O)O [Example 85, {3-[2-(3-Trifluoromethyl-benzyl)-1,1-dioxo-1,2-dihydro-1λ^6-benzo[e][1,2,3]thiadiazin-4-yl]-5-fluoro-2-methyl-indol-1-yl}-acetic acid]		< 1000 nM
Cc1noc(C)c1CN1N=C(c2c(C)n(CC(=O)O)c3ccc(F)cc23)c2ccccc2S1(=O)=O [Example 90, {3-[2-(3,5-Dimethyl-isoxazol-4-ylmethyl)-1,1-dioxo-1,2-dihydro-1λ^6-benzo[e][1,2,3]thiadiazin-4-yl]-5-fluoro-2-methyl-indol-1-yl}-acetic acid]		< 100 nM
CCN1N=C(c2c(C)n(CC(=O)O)c3ccc(F)cc23)c2ccccc2S1(=O)=O [Example 91, [3-(2-Ethyl-1,1-dioxo-1,2-dihydro-1λ^6-benzo[e][1,2,3]thiadiazin-4-yl)-5-fluoro-2-methyl-indol-1-yl]-acetic acid]		< 100 nM
CCCN1N=C(c2c(C)n(CC(=O)O)c3ccc(F)cc23)c2ccccc2S1(=O)=O [Example 92, [3-(2-Propyl-1,1-dioxo-1,2-dihydro-1λ^6-benzo[e][1,2,3]thiadiazin-4-yl)-5-fluoro-2-methyl-indol-1-yl]-acetic acid]		< 100 nM

The next lines start with the values.

IC50 (human CRTH2 [1])	Ki (human CRTH2 [2])	Structure (SMILES)
170 nM	< 100 nM	Cc1onc(-c2ccccc2)c1CN1C(c2c(C)n(CC(=O)O)c3ccc(Cl)cc23)c2ccccc2S1(=O)=O (stereo not drawn) [Example 61, {5-Chloro-2-methyl-3-[2-(5-methyl-3-phenyl-isoxazol-4-ylmethyl)-1,1-dioxo-2,3-dihydro-1H-1λ^6-benzo[d]isothiazol-3-yl]-indol-1-yl}-acetic acid]
22 nM	< 100 nM	Cc1noc(C)c1CN1C(c2c(C)n(CC(=O)O)c3ccccc23)c2ccc(F)cc2S1(=O)=O (stereo not drawn) [Example 62, {3-[2-(3,5-Dimethyl-isoxazol-4-ylmethyl)-6-fluoro-1,1-dioxo-2,3-dihydro-1H-1λ^6-benzo[d]isothiazol-3-yl]-2-methyl-indol-1-yl}-acetic acid]
	< 100 nM	Cc1c(C2=NN(C(C)c3ccccc3)S(=O)(=O)c3ccccc32)c2cc(F)ccc2n1CC(=O)O (stereo not drawn) [Example 86, {3-[2-(1-phenyl-ethyl)-1,1-dioxo-1,2-dihydro-1λ^6-benzo[e][1,2,3]thiadiazin-4-yl]-5-fluoro-2-methyl-indol-1-yl}-acetic acid]
	< 1000 nM	Cc1c(C2=NN(CCc3ccccc3)S(=O)(=O)c3ccccc32)c2cc(F)ccc2n1CC(=O)O [Example 87, {3-[2-phenethyl-1,1-dioxo-1,2-dihydro-1λ^6-benzo[e][1,2,3]thiadiazin-4-yl]-5-fluoro-2-methyl-indol-1-yl}-acetic acid]
	< 1000 nM	Cc1c(C2=NN(CCOc3ccccc3)S(=O)(=O)c3ccccc32)c2cc(F)ccc2n1CC(=O)O [Example 88, {3-[2-(2-Phenoxy-ethyl)-1,1-dioxo-1,2-dihydro-1λ^6-benzo[e][1,2,3]thiadiazin-4-yl]-5-fluoro-2-methyl-indol-1-yl}-acetic acid]
	< 1000 nM	Cc1c(C2=NN(CCOc3ccc(Cl)cc3)S(=O)(=O)c3ccccc32)c2cc(F)ccc2n1CC(=O)O [Example 89, (3-{2-[2-(4-Chloro-phenoxy)-ethyl]-1,1-dioxo-1,2-dihydro-1λ^6-benzo[e][1,2,3]thiadiazin-4-yl}-5-fluoro-2-methyl-indol-1-yl)-acetic acid]
	< 100 nM	Cc1c(C2=NN(C(C)C)S(=O)(=O)c3ccccc32)c2cc(F)ccc2n1CC(=O)O [Example 93, [3-(2-Isopropyl-1,1-dioxo-1,2-dihydro-1λ^6-benzo[e][1,2,3]thiadiazin-4-yl)-5-fluoro-2-methyl-indol-1-yl]-acetic acid]
	< 100 nM	Cc1c(C2=NN(C3CCCCC3)S(=O)(=O)c3ccccc32)c2cc(F)ccc2n1CC(=O)O [Example 94, [3-(2-Cyclohexyl-1,1-dioxo-1,2-dihydro-1λ^6-benzo[e][1,2,3]thiadiazin-4-yl)-5-fluoro-2-methyl-indol-1-yl]-acetic acid]
